pKi: −log10 of the molar value.

The term pKi denotes −log10 of the Ki, conventionally taken in molar units.

For the first experiment, the target named is T1, Tissue alpha-L-fucosidase (Homo sapiens, UniProt P04066).
T1 sequence (P04066 whole entry): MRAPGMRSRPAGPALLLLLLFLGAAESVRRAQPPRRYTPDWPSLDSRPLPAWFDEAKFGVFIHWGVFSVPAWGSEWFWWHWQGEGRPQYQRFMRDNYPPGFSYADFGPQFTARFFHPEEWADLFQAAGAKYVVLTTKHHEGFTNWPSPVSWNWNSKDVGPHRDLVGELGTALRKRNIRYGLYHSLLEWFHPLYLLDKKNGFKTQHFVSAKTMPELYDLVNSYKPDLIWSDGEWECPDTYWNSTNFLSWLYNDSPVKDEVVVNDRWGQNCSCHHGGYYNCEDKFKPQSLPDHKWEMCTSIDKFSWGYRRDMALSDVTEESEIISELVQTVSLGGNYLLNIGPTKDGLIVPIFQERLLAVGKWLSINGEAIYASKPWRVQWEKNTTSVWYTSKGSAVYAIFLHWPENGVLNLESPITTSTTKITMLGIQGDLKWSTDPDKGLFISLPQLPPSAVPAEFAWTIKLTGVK
In words: Inhibition constant against Alpha-Fucosidase.
The molecule `OCC1NC(CO)C(O)C1O` (configuration not stated) showed a pKi of 3.04. In turn, `CC(=O)C1C(O)C=COC1C` (configuration not stated) showed a pKi of 4.05. Against the preceding molecule, the pKi is 1.01 log units higher.

For `OC1C=COC(c2ccccc2)C1OCc1ccccc1` (configuration not stated), the pKi was less than 1.00. Molecule `CC1=COC(c2ccccc2)C(C)C1O` (stereo in doubt; 21) had a pKi of less than 1.00.

The molecule `CC(=O)C1C(O)C=COC1c1ccccc1` (configuration not stated) showed a pKi of less than 1.00. Same read-out and setting: the same measure for `OC1C=COC(c2ccccc2)C1` (configuration not stated): less than 1.00; for `CN1CC(O)C(O)C(O)C1CO` (configuration not stated): 2.28. Molecule `C[C@@H]1N[C@@H](CO)[C@H](O)[C@@H]1O` gave a pKi of 5.40. As for `CC1=COC(c2ccccc2)C(C)C1O` (stereo in doubt; 26), the pKi was less than 1.00. Same read-out and setting: as for `C[C@@H]1OC=C[C@@H](O)[C@@H]1O`, the figure is 4.30.

In a further experiment the target is T1, Tissue alpha-L-fucosidase. In words: Inhibition constant against Alpha-Fucosidase; Uncompetitive inhibition.
Consider `CC(=O)C1C(O)C=COC1C` (configuration not stated), for which the pKi is 1.59. Consider `C[C@H]1OC=C[C@@H](O)[C@H]1O` (stereo in doubt; 19), for which the pKi is 1.46. The pKi values of the last two molecules are within 0.2 log units of each other. On to `OC1C=COC(c2ccccc2)C1O` (stereo in doubt; 23), for which the pKi was 1.08. On to `OC1C=COC(c2ccccc2)C1O` (stereo in doubt; 25), for which the negative-log Ki (pKi) is 1.66. On the same count and under the same terms, as for `C[C@H]1OC=C[C@@H](O)[C@H]1O` (stereo in doubt; 24), the figure is 1.64.

The target of a further experiment is T2, Tissue alpha-L-fucosidase (Homo sapiens) (UniProt P04066).
T2 sequence (whole entry): T1 sequence (P04066 whole entry)
Description: Slope inhibition constant against Alpha-Fucosidase; Uncompetitive inhibition
On to `Oc1ccccc1`, for which the Kis was found to be 0.18 mM.

The target of the next experiment is T2, Tissue alpha-L-fucosidase (Homo sapiens). This is another data set of the same source.
Description: Intecept inhibition constant against Alpha-Fucosidase; Noncompetitive inhibition
As to `Oc1ccccc1`, the Kii was 112 mM.

(Values after ChEMBL document CHEMBL1126329, “Azasugar and glycal inhibitors of -L-fucosidase” (Bioorg Med Chem Lett, 1992).)
